Experimental data taken from US11434199B2, “Alcohol derivatives as KV7 potassium channel openers” (H. Lundbeck A/S, priority 2018, dated 2022).

target: T1, hKv7.2/hKv7.3 (Homo sapiens, UniProt O43525+O43526); assay: Automated whole cell patch-clamp functional test of the HEK-hKv7.2/hKv7.3 cell line; format: cell-based; details: stable HEK-hKv7.2/hKv7.3 cell line
T1 construct: P2A remnant (self-cleaving peptide between Kv7.3 and Kv7.2) (C); expressed in transfected cells
Description: (§1) A synthesized cDNA fragment encoding human Kv7.3 and human Kv7.2 separated by a P2A sequence was inserted into the pcDNA5/FRT/TO vector using the BamHI and XhoI restriction sites. The construct was then transfected into HEK Flp-In 293 cells using Lipofectamine2000. The transfected cells were grown for 48 hours in DMEM containing 10% (v/v) FBS and 1% PenStrep and subsequently maintained under selection in DMEM containing 10% (v/v) FBS, 1% PenStrep and 200 ug/mL Hygromycin B at 37° C. in a humidified atmosphere of 5% CO2.

Row | Structure (SMILES) | effect on Kv7-current
1 | CCOC(=O)Nc1ccc(NCc2ccc(F)cc2)cc1N [Retigabine, N-(2-amino-4-(4-fluorobenzylamino)-phenyl) carbamic acid ethyl ester] | potentiated
2 | O=C1c2ccccc2C(Cc2ccncc2)(Cc2ccncc2)c2ccccc21 [XE991] | sensitive

target: T1, hKv7.2/hKv7.3; assay: Thallium influx assay for potassium channel activation; format: cell-based; details: HEK-hKv7.2/hKv7.3 cells; FLIPR Potassium Assay kit; AUC readout normalized to a reference compound
Description: as §1
The thallium influx assay for potassium channel activation was performed analogously to a published procedure (C. D. Weaver, et al., J Biomol Screen 2004, 9, 671-677) using the FLIPR Potassium Assay kit (Molecular Devices). HEK-hKv7.2/hKv7.3 cells were plated onto 96-well, black-walled, clear-bottomed culture plates (Corning, Acton, Mass., USA) at a density of 80,000 cells/well (100 μl/well) if the cells were assayed the following day, or 40,000 cells/well (100 μl/well) if the cells were assayed two days after seeding.
On the assay day, the medium was removed after which 50 uL/well of test compound diluted to 2× final concentration in HBSS containing 20 mM HEPES, and 50 uL/well of 2× dye load buffer were added. The cells were then incubated for 60 min at room temperature in the dark. Chloride-free stimulation buffer containing Tl^+ and K^+ at 5× final concentration (5× concentration: 5 mM in both cases) and test compound at 1× final concentration, were prepared during the incubation. The cells were then assayed in a FDSS7000EX Functional Drug Screening System (Hamamatsu). Following 60 sec of baseline fluorescence signal reading at 0.1 Hz, and 10 sec at 1 Hz, 25 uL/well of stimulation buffer were added and the fluorescence continuously measured for 50 sec at 1 Hz followed, by 4 min at 0.1 Hz. Compound effect was quantified using AUC as readout and normalized to a reference compound, which was included on each plate.

Row | Structure (SMILES) | EC50 [nM]
3 | C[C@H](NC(=O)CC(O)C(C)(C)C)c1cccc(OCC(F)(F)F)c1 (single isomer, unassigned) [Example 2a] | 460
4 | C[C@H](NC(=O)CC(O)C(C)(C)C)c1cccc(OCC(F)(F)F)c1 (single isomer, unassigned) [Example 2b] | 1800
5 | C[C@H](NC(=O)CC(O)C(C)(C)C)c1cccc(OC(F)F)c1 (single isomer, unassigned) [Example 3a] | 11000
6 | C[C@H](NC(=O)CC(O)C(C)(C)C)c1cccc(OC(F)F)c1 (single isomer, unassigned) [Example 3b] | 1500
7 | C[C@H](NC(=O)CC(O)C(C)(C)C)c1cccc(C(F)(F)F)c1 (single isomer, unassigned) [Example 4a] | 11000
8 | C[C@H](NC(=O)CC(O)C(C)(C)C)c1cccc(C(F)(F)F)c1 (single isomer, unassigned) [Example 4b] | 1200
9 | CC(C)C(O)(CC(=O)N[C@@H](C)c1cccc(OCC(F)(F)F)c1)C(F)(F)F (single isomer, unassigned) [Example 7a] | 220
10 | CC(C)C(O)(CC(=O)N[C@@H](C)c1cccc(OCC(F)(F)F)c1)C(F)(F)F (single isomer, unassigned) [Example 7b] | 1500
11 | CC[C@H](NC(=O)CC(O)C(C)(C)C)c1cccc(OC(F)(F)F)c1 (single isomer, unassigned) [Example 8a] | 430
12 | CC[C@H](NC(=O)CC(O)C(C)(C)C)c1cccc(OC(F)(F)F)c1 (single isomer, unassigned) [Example 8b] | 3000
13 | C[C@H](NC(=O)CC(C)(O)C(F)(F)C(F)F)c1cccc(OC(F)(F)F)c1 (single isomer, unassigned) [Example 10b] | 1300
14 | C[C@H](NC(=O)CC(O)C1CC(F)(F)C1)c1cccc(OC(F)(F)F)c1 (single isomer, unassigned) [Example 11b] | 4500
15 | CC(C)C(O)CC(=O)N[C@@H](C)c1cccc(OCC(F)(F)F)c1 (single isomer, unassigned) [Example 12a] | 1600
16 | CC(C)C(O)CC(=O)N[C@@H](C)c1cccc(OCC(F)(F)F)c1 (single isomer, unassigned) [Example 12b] | 5900
17 | C[C@H](NC(=O)CC(C)(O)CC(F)(F)F)c1cccc(OC(F)(F)F)c1 (single isomer, unassigned) [Example 13b] | 2900
18 | C[C@H](NC(=O)CC(O)C1(C(F)F)CC1)c1cccc(OC(F)(F)F)c1 (single isomer, unassigned) [Example 14a] | 2000
19 | C[C@H](NC(=O)C[C@@H](O)C1(C(F)F)CC1)c1cccc(OC(F)(F)F)c1 (single isomer, unassigned) [Example 14b] | 6600
20 | C[C@H](NC(=O)C[C@@](C)(O)C1(F)CC1)c1cccc(OC(F)(F)F)c1 (single isomer, unassigned) [Example 15a] | 2100
21 | C[C@H](NC(=O)CC(C)(O)C1(F)CC1)c1cccc(OC(F)(F)F)c1 (single isomer, unassigned) [Example 15b] | 11000
22 | C[C@H](NC(=O)CC(O)C1(C(F)(F)F)CC1)c1cccc(OC(F)(F)F)c1 (single isomer, unassigned) [Example 16a] | 3000
23 | C[C@H](NC(=O)CC(O)C1(C(F)(F)F)CC1)c1cccc(OC(F)(F)F)c1 (single isomer, unassigned) [Example 16b] | 10000
24 | C[C@H](NC(=O)CC(C)(O)C1CC1)c1cccc(OCC(F)(F)F)c1 (single isomer, unassigned) [Example 18a] | 1300
25 | C[C@H](NC(=O)CC(C)(O)C1CC1)c1cccc(OCC(F)(F)F)c1 (single isomer, unassigned) [Example 18b] | 7100
26 | C[C@H](NC(=O)CC(C)(O)C(F)(F)F)c1cccc(OCC(F)(F)F)c1 (single isomer, unassigned) [Example 19a] | 1700
27 | C[C@H](NC(=O)CC(C)(O)C(F)(F)F)c1cccc(OCC(F)(F)F)c1 (single isomer, unassigned) [Example 19b] | 3400
28 | CC(C)C(O)CC(=O)N[C@@H](C)c1cccc(OC(F)(F)F)c1 (single isomer, unassigned) [Example 20a] | 3100
29 | CC(C)C(O)CC(=O)N[C@@H](C)c1cccc(OC(F)(F)F)c1 (single isomer, unassigned) [Example 20b] | 14000
